Assay results taken from publication PMC11738990, “A small-molecule TNIK inhibitor targets fibrosis in preclinical and clinical models” (Nature Biotechnology, 2024).
Like-named read-outs stand apart in the source and are kept apart here.

Test system: A549 cells
Details: for E-Cadherin/GAPDH normalized: DMSO=1; for N-Cadherin/GAPDH normalized / Smad2/3/GAPDH normalized / p- Smad2/3/GAPDH normalized / b-catenin/ HDAC2 normalized / b-catenin/ Histone 3 normalized / b-catenin/ tubulin normalized: TGF-β=1; for P65/GAPDH normalized / p-P65/GAPDH normalized: TGF-β+TNF-a=1
[1] = 0.1 μM, TGF-β+TNF-a group, Batch 1
[2] = 0.1 μM, TGF-β+TNF-a group, Batch 2
[3] = 0.1 μM, TGF-β+TNF-a group, Batch 3
[4] = 0.3 μM, TGF-β+TNF-a group, Batch 1
[5] = 0.3 μM, TGF-β+TNF-a group, Batch 2
[6] = 0.3 μM, TGF-β+TNF-a group, Batch 3

CC(C)n1cnc(-c2ccc(F)cc2)c1-c1nc(C(=O)Nc2ccc(N3CCN(C)CC3)cc2)c[nH]1 [INS018_055, 2-[4-(4-fluorophenyl)-1-(prop-2-yl)imidazol-5-yl]-N-[4-(4-methylhexahydropyrazin-1-yl)phenyl]-1H-imidazole-4-carboxamide]
E-Cadherin/GAPDH normalized (0.1 μM, Batch 1): 0.882 | N-Cadherin/GAPDH normalized (0.1 μM, Batch 1): 0.7004 | Smad2/3/GAPDH normalized (0.1 μM, Batch 1): 1.169 | p- Smad2/3/GAPDH normalized (0.1 μM, Batch 1): 0.1198 | E-Cadherin/GAPDH normalized (0.1 μM, Batch 2): 0.7553 | N-Cadherin/GAPDH normalized (0.1 μM, Batch 2): 0.5859 | Smad2/3/GAPDH normalized (0.1 μM, Batch 2): 1.386 | b-catenin/ HDAC2 normalized (0.1 μM, Batch 2): 0.9011 | b-catenin/ Histone 3 normalized (0.1 μM, Batch 2): 1.011 | b-catenin/ tubulin normalized (0.1 μM, Batch 2): 0.7986 | p- Smad2/3/GAPDH normalized (0.1 μM, Batch 2): 0.1997 | E-Cadherin/GAPDH normalized (0.1 μM, Batch 3): 1.033 | N-Cadherin/GAPDH normalized (0.1 μM, Batch 3): 0.3543 | Smad2/3/GAPDH normalized (0.1 μM, Batch 3): 0.9832 | b-catenin/ HDAC2 normalized (0.1 μM, Batch 3): 0.6944 | b-catenin/ Histone 3 normalized (0.1 μM, Batch 3): 1.35 | b-catenin/ tubulin normalized (0.1 μM, Batch 3): 1.101 | p- Smad2/3/GAPDH normalized (0.1 μM, Batch 3): 0.212 | b-catenin/ HDAC2 normalized (0.1 μM, Batch 4): 1.905 | b-catenin/ Histone 3 normalized (0.1 μM, Batch 4): 0.9078 | b-catenin/ tubulin normalized (0.1 μM, Batch 4): 1.377 | P65/GAPDH normalized (0.1 μM, TGF-β group, Batch 1): 0.4666 | p-P65/GAPDH normalized (0.1 μM, TGF-β group, Batch 1): 0.1387 | P65/GAPDH normalized (0.1 μM, TGF-β group, Batch 2): 0.8513 | p-P65/GAPDH normalized (0.1 μM, TGF-β group, Batch 2): 0.05722 | P65/GAPDH normalized (0.1 μM, TGF-β group, Batch 3): 0.4658 | p-P65/GAPDH normalized (0.1 μM, TGF-β group, Batch 3): 0.04967 | P65/GAPDH normalized [1]: 0.668 | p-P65/GAPDH normalized [1]: 0.6884 | P65/GAPDH normalized [2]: 0.75 | p-P65/GAPDH normalized [2]: 0.7416 | P65/GAPDH normalized [3]: 0.4563 | p-P65/GAPDH normalized [3]: 0.5057 | E-Cadherin/GAPDH normalized (0.3 μM, Batch 1): 1.52 | N-Cadherin/GAPDH normalized (0.3 μM, Batch 1): 0.1615 | Smad2/3/GAPDH normalized (0.3 μM, Batch 1): 1.047 | p- Smad2/3/GAPDH normalized (0.3 μM, Batch 1): 0.03 | E-Cadherin/GAPDH normalized (0.3 μM, Batch 2): 1.01 | N-Cadherin/GAPDH normalized (0.3 μM, Batch 2): 0.2158 | Smad2/3/GAPDH normalized (0.3 μM, Batch 2): 1.249 | b-catenin/ HDAC2 normalized (0.3 μM, Batch 2): 0.8061 | b-catenin/ Histone 3 normalized (0.3 μM, Batch 2): 0.5919 | b-catenin/ tubulin normalized (0.3 μM, Batch 2): 0.4991 | p- Smad2/3/GAPDH normalized (0.3 μM, Batch 2): 0.1456 | E-Cadherin/GAPDH normalized (0.3 μM, Batch 3): 0.9712 | N-Cadherin/GAPDH normalized (0.3 μM, Batch 3): 0.1387 | Smad2/3/GAPDH normalized (0.3 μM, Batch 3): 1.033 | b-catenin/ HDAC2 normalized (0.3 μM, Batch 3): 0.9297 | b-catenin/ Histone 3 normalized (0.3 μM, Batch 3): 0.5389 | b-catenin/ tubulin normalized (0.3 μM, Batch 3): 1.411 | p- Smad2/3/GAPDH normalized (0.3 μM, Batch 3): 0.1442 | b-catenin/ HDAC2 normalized (0.3 μM, Batch 4): 0.672 | b-catenin/ Histone 3 normalized (0.3 μM, Batch 4): 0.7931 | b-catenin/ tubulin normalized (0.3 μM, Batch 4): 1.498 | P65/GAPDH normalized (0.3 μM, TGF-β group, Batch 1): 0.4013 | p-P65/GAPDH normalized (0.3 μM, TGF-β group, Batch 1): 0.07454 | P65/GAPDH normalized (0.3 μM, TGF-β group, Batch 2): 0.8627 | p-P65/GAPDH normalized (0.3 μM, TGF-β group, Batch 2): 0.05473 | P65/GAPDH normalized (0.3 μM, TGF-β group, Batch 3): 0.4505 | p-P65/GAPDH normalized (0.3 μM, TGF-β group, Batch 3): 0.04515 | P65/GAPDH normalized [4]: 0.6352 | p-P65/GAPDH normalized [4]: 0.6859 | P65/GAPDH normalized [5]: 0.8628 | p-P65/GAPDH normalized [5]: 0.7296 | P65/GAPDH normalized [6]: 0.342 | p-P65/GAPDH normalized [6]: 0.3802 | E-Cadherin/GAPDH normalized (1 μM, Batch 1): 1.5017 | N-Cadherin/GAPDH normalized (1 μM, Batch 1): 0.1538
